Data set [1] can be described thus: RP, Waters ACQUITY UPLC BEH C18, 100 × 1 mm, 1.7 µm, 50 °C, 0.3 mL/min, estimated dead time 0.17 min; A: water + 0.1% formic acid + 20 mM ammonium formate; B: methanol + 0.1% formic acid + 20 mM ammonium formate; gradient (min/%B) 0/0 15/100 21/100 22/0 30/0. The conditions noted are these: stereoisomer not certain.
The nature of data set [2]: RP, Waters ACQUITY UPLC BEH C18, 100 × 1 mm, 1.7 µm, 50 °C, 0.3 mL/min, estimated dead time 0.17 min; A: water + 10 mM ammonium bicarbonate; B: 10% water + 90% methanol + 10 mM ammonium bicarbonate; gradient (min/%B) 0/0 15/100 21/100 22/0 30/0. The note with it: stereoisomer not certain.

Take `Cc1cccc(Cl)c1NC(=O)N(C)C` [3-(2-CHLORO-6-METHYLPHENYL)-1,1-DIMETHYLUREA]: the LC retention time in data set [1] was 10 min; in data set [2], 10.1 min.

Regarding `O=C1C(O)Oc2ccccc2N1O` (centres undefined) [DIBOA], the figures for the LC retention time in data set [1] and in data set [2] were 7.76 min and 3.05 min, respectively.

Regarding `CN1C(=O)CC(C)(c2ccccc2)C1=O` (centres undefined) [Methsuximide], the LC retention time in data set [1] was 11.2 min; in data set [2], 11.4 min.

Consider `CNC1(c2ccccc2Cl)CCCCC1=O` (centres undefined) [Ketamine], for which the figures for the LC retention time in data set [1] and in data set [2] were 8.96 min and 13.5 min, respectively.

On to `O=C1CC2(CCCCC2)CN1` [Gabapentin-Lactam], for which the LC retention time in data set [1] is 11.3 min; in data set [2] it was 11.4 min.

With `CCCCC(CC)COP(=O)(O)OCC(CC)CCCC` (centres undefined) [Bis(2-ethylhexyl)phosphate], the LC retention time in data set [1] and in data set [2] was 17.2 min each time.

For the compound `CC1COc2c(N3CCN(C)CC3)c(F)cc3c(=O)c(C(=O)O)cn1c23` (centres undefined) [Ofloxacin], the LC retention time was 8.04 min in data set [1] and 9.6 min in data set [2].

Consider `CCCN(CCOc1c(Cl)cc(Cl)cc1Cl)C(N)=O`, for which the LC retention time in data set [1] is 15.9 min; in data set [2], 16.2 min.

Regarding `C=CCOC(=O)C(C)(C)OC(=O)c1cc(-n2c(=O)cc(C(F)(F)F)n(C)c2=O)ccc1Cl` [Butafenacil], the results for the LC retention time in data set [1] and in data set [2] were 14.8 min and 15.1 min, respectively.

Regarding `CC(=O)NCC1CN(c2ccc(N3CCOCC3)c(F)c2)C(=O)O1` (centres undefined) [Linezolid], the LC retention time in data set [1] is 9.9 min; in data set [2] it was 10 min.

For `COCC(C)N(C(=O)CS(=O)CC(=O)O)c1c(C)csc1C` (centres undefined) [Dimethenamid M31], the figures for the LC retention time in data set [1] and in data set [2] were 11.4 min and 10.6 min, respectively.

`CCOC(=O)c1ccc(N(C)C)cc1` [Ethyl-4-dimethylaminobenzoate]: the LC retention time was 14.3 min in data set [1] and 14.6 min in data set [2].

For the compound `CCn1cc(C(=O)O)c(=O)c2cc(F)c(N3CCNCC3)cc21` [norfloxacin], the LC retention time in data set [1] was 8.16 min; in data set [2], 7.5 min.

For the compound `CC(C)OC(=O)c1ccccc1C(=O)OC(C)C` [Diisopropylphthalate], the LC retention time in data set [1] was 15.1 min; in data set [2], 15.4 min.

For `CC12C=CC3=C4CCC(=O)C=C4CCC3C1CCC2O` (centres undefined) [Trenbolone], the LC retention time in data set [1] is 13.4 min; in data set [2] it was 13.6 min.

Turning to `O=C1NC(=O)C2CC=CCC12` (centres undefined) [Tetrahydrophthalimide], the figures for the LC retention time in data set [1] and in data set [2] were 5.38 min and 5.35 min, respectively.

For the compound `COCCOCCOCCOCCOC` [Tetraglyme], the figures for the LC retention time in data set [1] and in data set [2] were 9.01 min and 9.08 min, respectively.

For `Clc1ccccn1` [2-Chloropyridine], the LC retention time was 8.31 min in data set [1] and 8.38 min in data set [2].

On to `CN1C2CCC1C(C(=O)O)C(OC(=O)c1ccccc1)C2` (centres undefined) [Benzoylecgonin], for which the LC retention time is 11.5 min in data set [1] and 11.6 min in data set [2].

Regarding `CC(=O)N1CCN(c2ccc(OCC3COC(Cn4ccnc4)(c4ccc(Cl)cc4Cl)O3)cc2)CC1` (centres undefined) [Ketoconazole], the LC retention time in data set [1] is 13.3 min; in data set [2] it was 16.1 min.

As to `COc1ccc(C(=CC(=O)N2CCOCC2)c2ccc(Cl)cc2)cc1OC` [Dimethomorph], the LC retention time in data set [1] was 14.4 min; in data set [2], 14.7 min.

On to `CC(C)NCC(O)COc1ccc(C(=O)O)cc1` (centres undefined) [Bisoprolol_M3], for which the LC retention time in data set [1] is 6.96 min; in data set [2], 10.4 min.

Regarding `CC12CCC3C(CCC4=CC(=O)CCC43C)C1CCC2=O` (centres undefined) [4-Androstene-3,17-dione], the LC retention time in data set [1] was 14 min; in data set [2], 14.2 min.

For `O=C(Nc1ccc(Cl)cc1C(O)c1ccccc1)c1ccncc1` (centres undefined) [Inabenfide], the LC retention time in data set [1] was 13.9 min; in data set [2] it was 14.2 min.

With `COC(C)C(O)(C(=O)OCC1=CCN2CCC(O)C12)C(C)(C)O` (centres undefined) [Europine], the LC retention time is 6.72 min in data set [1] and 9.86 min in data set [2].

Take `CC=C(C)C(=O)OC1CCN2CC=C(COC(=O)C(O)(C(C)O)C(C)(C)O)C12` (centres undefined) [Echimidine]: the results for the LC retention time in data set [1] and in data set [2] were 9.4 min and 13.2 min, respectively.

On to `CCOC(=O)C(CCc1ccccc1)NC(C)C(=O)N1CCCC1C(=O)O` (centres undefined) [Enalapril], for which the LC retention time in data set [1] was 11.7 min; in data set [2], 12.2 min.

As for `CC=C1CC(C)C(O)(CO)C(=O)OCC2=CCN3CCC(OC1=O)C23` (centres undefined) [Retrorsine], the LC retention time in data set [1] is 7.62 min; in data set [2], 11.6 min.

`CC1=CC(=O)CC(C)(C)C1` [Isophorone]: the LC retention time is 11.7 min in data set [1] and 11.9 min in data set [2].

Regarding `CN(Cc1nc2c(N)nc(N)nc2[nH]c1=O)c1ccc(C(=O)NC(CCC(=O)O)C(=O)O)cc1` (centres undefined) [7-Hydroxymethotrexat], the LC retention time was 8.94 min in data set [1] and 6.65 min in data set [2].

As to `CN(C)S(=O)(=O)Nc1ccccc1` [DMSA], the LC retention time in data set [1] and in data set [2] was 10.7 min each time.

With `COc1ccc2c(c1OC)C(=O)OC2C1c2c(cc3c(c2OC)OCO3)CCN1C` (centres undefined) [Noscapin], the LC retention time in data set [1] is 9.81 min; in data set [2], 14.8 min.

With `C=C1C(=O)OC2C1CCC(C)=CCCC1(C)OC21` (centres undefined) [Parthenolid], the LC retention time in data set [1] is 12.8 min; in data set [2] it was 13.1 min.

For the compound `CCCC1OC2CC3C4CCC5=CC(=O)C=CC5(C)C4C(O)CC3(C)C2(C(=O)CO)O1` (centres undefined) [Budesonide], the LC retention time in data set [1] is 14.8 min; in data set [2] it was 15.1 min.

As for `CC(C)(C)C(O)C(Cc1ccc(Cl)cc1Cl)n1cncn1` (centres undefined) [Dichlobutrazol], the LC retention time in data set [1] was 15.4 min; in data set [2] it was 15.8 min.

Turning to `CC(C)NCC(O)COc1cccc2[nH]ccc12` (centres undefined) [Pindolol], the LC retention time in data set [1] was 7.51 min; in data set [2], 10.2 min.

Regarding `O=[N+]([O-])c1ccc(O)c([N+](=O)[O-])c1` [2,4-Dinitrophenol], the LC retention time in data set [1] is 9.71 min; in data set [2], 6.21 min.

Regarding `COc1ccc2cc(C(C)C(=O)O)ccc2c1` (centres undefined) [Naproxen], the LC retention time in data set [1] is 13.8 min; in data set [2], 11 min.

For `CC(=O)OC12COC1CC(O)C1(C)C(=O)C(O)C3=C(C)C(O)CC(O)(C(OC(=O)c4ccccc4)C21)C3(C)C` (centres undefined) [10-Deacetylbaccatin III], the values for the LC retention time in data set [1] and in data set [2] were 11.7 min and 12 min, respectively.

For the compound `COc1cc2ccc(=O)oc2c(O)c1OC` [Fraxidin], the results for the LC retention time in data set [1] and in data set [2] were 9.59 min and 8.22 min, respectively.

As to `CCCCCCCCCCCCNC` [N-Methyldodecylamine], the values for the LC retention time in data set [1] and in data set [2] were 15.2 min and 17.7 min, respectively.

For the compound `CCCCCCCOC(=O)c1ccccc1C(=O)OCCCCCCC` [Di-n-heptylphthalate], the LC retention time in data set [1] is 18.9 min; in data set [2], 19.4 min.

On to `CCCCCCCCCC[N+](C)(C)[O-]` [N,N-Dimethyldecylamine-N-oxide], for which the LC retention time in data set [1] is 13.8 min; in data set [2] it was 15.2 min.

With `O=C(C1CCCCC1)N1CC(=O)N2CCc3ccccc3C2C1` (centres undefined) [Praziquantel], the LC retention time is 14 min in data set [1] and 14.3 min in data set [2].

For `COC1C=COC2(C)Oc3c(C)c(O)c4c(O)c(c5c(nc6cc(C)ccn65)c4c3C2=O)NC(=O)C(C)=CC=CC(C)C(O)C(C)C(O)C(C)C(OC(C)=O)C1C` (centres undefined) [Rifaximin], the values for the LC retention time in data set [1] and in data set [2] were 14.7 min and 14.6 min, respectively.

Regarding `CN(C1CCCCC1)C1CCCCC1` [N-Methyl-dicyclohexylamine], the figures for the LC retention time in data set [1] and in data set [2] were 9.22 min and 13.1 min, respectively.

`O=C(OCc1ccccc1)c1ccccc1C(=O)OCc1ccccc1` [Dibenzylphthalate]: the results for the LC retention time in data set [1] and in data set [2] were 16.3 min and 16.7 min, respectively.

`CCN(CCCCOC(=O)c1ccc(OC)c(OC)c1)C(C)Cc1ccc(OC)cc1` (centres undefined) [Mebeverine]: the LC retention time in data set [1] is 12.1 min; in data set [2], 17.1 min.

For the compound `CCOP(=S)(OCC)ON=C(C#N)c1ccccc1` [Phoxim], the LC retention time was 15.9 min in data set [1] and 14.4 min in data set [2].

Take `COP(=O)(OC)SCn1c(=O)oc2cc(Cl)cnc21` [Azamethiphos]: the values for the LC retention time in data set [1] and in data set [2] were 11.4 min and 11.6 min, respectively.

For `COC(=O)c1ccc(C(=O)OC)cc1` [Dimethyl terephthalate], the LC retention time in data set [1] is 11.1 min; in data set [2], 20.7 min.

As for `Cc1ccc(C(C)NC(=O)C(NC(=O)OC(C)C)C(C)C)cc1` (centres undefined) [Iprovalicarb], the LC retention time in data set [1] is 14.8 min; in data set [2] it was 15.1 min.

As to `CCC(C)OC(=O)N1CCCCC1CCO` (centres undefined) [Icaridin], the LC retention time in data set [1] was 13.7 min; in data set [2], 14 min.

Turning to `CC(C)NCC(O)COc1ccc(CC(N)=O)cc1` (centres undefined) [Atenolol], the LC retention time in data set [1] was 6.38 min; in data set [2], 8.56 min.

As to `OCC(O)CN1CCN(c2ccccc2)CC1` (centres undefined) [Dropropizine], the LC retention time in data set [1] is 6.44 min; in data set [2], 10.7 min.

`COc1ccccc1OCC(O)COC(N)=O` (centres undefined) [Methocarbamol]: the LC retention time in data set [1] was 9.52 min; in data set [2], 9.71 min.

As to `CCOC(=O)C(Cl)Cc1cc(-n2nc(C)n(C(F)F)c2=O)c(F)cc1Cl` (centres undefined) [Carfentrazone-ethyl], the values for the LC retention time in data set [1] and in data set [2] were 15.4 min and 15.8 min, respectively.

The values are drawn from the RepoRT retention time repository (doi:10.1021/acs.analchem.1c00972).
